Results from patent publication US20080021049A1, “Treatment Of Diet-Related Conditions Using Phospholipase-A2 Inhibitors Comprising Indoles And Related Compounds” (priority 2004, published 2008).
Like-named read-outs stand apart in the source and are kept apart here.

Legend:
[1] = biological target: porcine pancreatic secreted PLA2 (pps PLA2) (Sus scrofa, UniProt P00592); conditions: reported literature data; cited from earlier work
[2] = biological target: human pancreatic secreted PLA2 (hps PLA2) (Homo sapiens, UniProt P04054); conditions: reported literature data; cited from earlier work
human pancreatic secreted PLA2 (hps PLA2), sequence (P04054 23-148): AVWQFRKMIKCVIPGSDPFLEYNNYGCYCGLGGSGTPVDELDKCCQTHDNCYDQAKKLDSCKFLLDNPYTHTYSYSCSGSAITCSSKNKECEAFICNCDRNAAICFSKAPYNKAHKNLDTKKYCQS

human PLA2 IB enzyme = human PLA2 IB enzyme (Homo sapiens, UniProt P04054); conditions: pyrene substrate release from vesicles (Singer, Ghomashchi et al. 2002); read-out: IC50 versus the human PLA2 IB enzyme; cited from earlier work
human PLA2 IB enzyme, sequence (P04054 23-148): as above

mouse PLA2 IB enzyme = mouse PLA2 IB enzyme (Mus musculus, UniProt Q9Z0Y2); conditions: pyrene substrate release from vesicles (Singer, Ghomashchi et al. 2002); read-out: IC50 versus the mouse PLA2 IB enzyme; cited from earlier work
mouse PLA2 IB enzyme, sequence (Q9Z0Y2 23-146): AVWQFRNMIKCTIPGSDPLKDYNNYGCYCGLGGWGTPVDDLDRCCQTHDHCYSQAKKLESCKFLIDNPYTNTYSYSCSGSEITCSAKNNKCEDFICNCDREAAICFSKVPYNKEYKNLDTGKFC

Stability at low pH = format: physicochemical
[3] = format: in vivo, mice; conditions: low dose 25 mg/kg/day in diet
Caco-2 cells [4] = assay: Caco-2 permeability study (Example 6B)
[5] = format: in vivo, mice; conditions: 10 weeks
[6] = Pharmokinetic study, bioavailability (Example 6C); format: in vivo, mice
Procedure: This example characterized ILY-4001 [2-(3-(2-amino-2-oxoacetyl)-1-(biphenyl-2-ylmethyl)-2-methyl-1H-indol-4-yloxy)acetic acid], alternatively referred to herein as methyl indoxam, with respect to activity, as determined by IC50 assay (Example 6A), with respect to cell absorption, as determined by in-vitro Caco-2 assay (Example 6B) and with respect to bioavailability, as determined using in-vivo mice studies (Example 6C).
Bioavailability was calculated as a ratio of AUC-oral/AUC-intravenous (IV). To determine this ratio, a first set of subject animals were given a measured intravenous (IV) dose of ILY-4001, followed by a determination of ILY-4001 levels in the blood at various time points after administration (e.g., 5 minutes through 24 hours). Another second set of animals was similarly dosed using oral administration, with blood levels of ILY-4001 determined at various time points after administration (e.g., 30 minutes through 24 hours). The level of ILY-4001 in systemic circulation were determined by generally accepted methods (for example as described in Evans, G., A Handbook of Bioanalysis and Drug Metabolism. Boca Raton, CRC Press (2004)). Specifically, […]/mass spectrometry/mass spectrometry (LC/MS/MS) analytical methods were used to quantitate plasma concentrations of ILY-4001 after oral and intravenous administration. […]

[7] = format: in vivo, mice; conditions: for body weight gain compared to wild-type control group: week 4 and week 10
Caco-2 cells [8] = system: Caco-2 cells

porcine pancreatic secreted PLA2 (pps PLA2), sequence (P00592 23-146): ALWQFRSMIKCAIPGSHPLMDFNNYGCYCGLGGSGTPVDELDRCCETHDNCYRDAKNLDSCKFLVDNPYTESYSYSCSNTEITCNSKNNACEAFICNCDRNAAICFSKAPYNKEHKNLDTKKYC

In the case of `Cc1c(CC(N)=O)c2c(OCC(=O)O)cccc2n1Cc1cccc(Cl)c1`, the IC50 [1] is given as 0.02 µM and the IC50 [2] is given as 1.2 µM.

For `Cc1c(CC(N)=O)c2c(OCC(=O)O)cccc2n1Cc1ccccc1-c1ccccc1`, the IC50 [1] is given as 0.014 µM and the IC50 [2] is given as 4.09 µM.

For `Cc1c(CC(=O)NN)c2cc(OCCCC(=O)O)ccc2n1Cc1ccccc1`, the “IC50 (μM) pps PLA2” value [1] is given as “no activity” and the “IC50 (μM) hps PLA2” value [2] is given as “no activity”.

For `Cc1c(C(=O)C(N)=O)c2c(/C=C/C(=O)O)cccc2n1Cc1ccccc1`, the IC50 [2] is given as > 100 µM.

For `Cc1c(C(=O)C(N)=O)c2c(CCC(=O)O)cccc2n1Cc1ccccc1`, the IC50 [2] is given as > 100 µM.

In the case of `Cc1c(C(=O)C(N)=O)c2c(OCC(=O)O)cccc2n1Cc1ccccc1-c1ccccc1` [ILY-4001, 2-(3-(2-amino-2-oxoacetyl)-1-(biphenyl-2-ylmethyl)-2-methyl-1H-indol-4-yloxy)acetic acid], the IC50 (human PLA2 IB enzyme) is given as ~200 nM, the IC50 (mouse PLA2 IB enzyme) is given as ~150 nM and the “stability at low pH” value (Stability at low pH) is given as “stable at low pH”. For the same compound, the fasting glucose levels ([3]; week four) was “moderately beneficial effect”, the fasting glucose levels ([3]; week ten) was “a beneficial effect was not observed” and the “apparent permeability (Papp)” value (Caco-2 cells [4]; 50 ug/ml in apical well, sampled basolateral, Caco-2 monolayer) was “around 1.66×10^−7 cm/s”. For the same compound, the “absorption from the GI lumen” value (Caco-2 cells [4]; based on Caco-2 assays and pharmokinetic studies) was “relatively low absorption”, the “plasma level of cholesterol” value ([5]; high dose 90 mg/kg/day in diet) was “substantially reduced” and the “plasma level of triglycerides” value ([5]; high dose 90 mg/kg/day in diet) was “substantially reduced”. The “plasma level of cholesterol” value ([5]; low dose 25 mg/kg/day in diet) was “substantially reduced”, the “plasma level of triglycerides” value ([5]; low dose 25 mg/kg/day in diet) was “substantially reduced” and the bioavailability ([6]; mouse, plasma, oral, 30 mg/kg, read-out: % F (bioavailability)) was 28%. The “level of non-absorption from the GI tract into systemic circulation” value ([6]; oral 30 mg/kg) was ~72%, the “body weight gain modulation relative to PLA2 (−/−) mice” value ([7]; 25 mg/kg/d (low dose) in diet, ten weeks) was “comparable to that achieved in the PLA2 (−/−) mice” and the “body weight gain modulation relative to PLA2 (−/−) mice” value ([7]; 25 mg/kg/d in diet, four weeks) was “approaching that achieved in the PLA2 (−/−) mice”. The “body weight gain compared to wild-type control group” value ([7]; 25 mg/kg/d in diet) was “significantly reduced body weight gains”, the “body weight gain modulation relative to PLA2 (−/−) mice” value ([7]; 90 mg/kg/d in diet, four weeks) was “approaching that achieved in the PLA2 (−/−) mice” and the “body weight gain compared to wild-type control group” value ([7]; 90 mg/kg/d in diet) was “significantly reduced body weight gains”.

With Lucifer Yellow the “apparent permeability (Papp)” value (Caco-2 cells [8]) was “around 2.82×10^−7+/−0.37×10^−7 cm/s”.
